According to patent publication US20190388389A1, “METHODS AND COMPOSITIONS OF CARNOSOL FOR INHIBITING UVB-INDUCED SKIN DAMAGE” (Ohio University, priority 2017, published 2019):

Tests used:
ONOO^− in HaCaT cells = experiment: Peroxynitrite measurement (DAR) after UVB radiation; format: cell-based, Human; details: 20 μM carnosol
Protocol: FIGS. 4A-4B: Quantitative analysis of NO* and ONOO^− after UVB radiation. HaCaT cells were irradiated with UVB radiation in the presence or absence of carnosol (20 μM). At indicated time point, cells were stained with DAF-2DA or DAR. The fluorescent intensity was then measured and normalized to cell viability. (FIG. 4A) Quantitative measurement of NO*. (FIG. 4B) Quantitative measurement of ONOO^−. *p<0.05 versus corresponded group with carnosol treatment upon UVB radiation.
The level of NO* was measured by 5 mM diaminofluorescein diacetate (DAF-2DA) (ex490/em520 nm) and ONOO^− was measured by 5 mM diaminorhodamine (DAR) (ex488/em515 nm). 1×10^5 HaCaT cells were seeded in 96-well plate one day before measurement. […] The cells were then incubated in dark for 2 h at room temperature and the fluorescence was measured by luminometer (Molecular devices Spectra Max M2). The reading was then normalized by AlamarBlue cell viability assay (Life technology). 10% of the Alamar Blue reagent was added to cells with medium followed by 2 h incubation at 37° C. in dark then read the fluorescent at ex570/em590 nm using luminometer (Molecular devices Spectra Max M2).
Both NO* and ONOO^− are induced by UVB radiation. By using DAF-2DA (5 mM) and DAR (5 mM), the effect of carnosol on intracellular NO* and ONOO^− level, in a time dependent manner upon UVB radiation, was also measured.

phosphor-Chk = experiment: Western blot of DNA damage marker, HaCaT cells; format: cell-based, Human; details: 15 min and 1 h post UVB 50 mJ/cm^2
Protocol: (§1) FIGS. 5A-5B: Carnosol protects UVB-induced DNA damage. (FIG. 5A) HaCaT cells and (FIG. 5B) MEF cells were exposed to 50 mJ/cm^2 UVB radiation in the presence or absence of carnosol. Cells were lysed at indicated time point and protein levels of phosphorylated H2AX and Chk were measured. The data represents three sets of independent experiments.
(§2) Cells were lysed with Nonidet P-40 (NP-40) lysis buffer (2% NP-40, 80 mM NaCl, 100 mM Tris-HCl pH 8.0, 0.1% SDS) with proteinase inhibitor mixture (Complete™, Roche Molecular Biochemicals) at indicated time point. Cell lysate was incubated on ice for 15 min and then centrifuged at 14,000 rpm at 4° C. for 15 min. Protein concentration was measured by Protein DC Assay kit (Bio-Rad Laboratories). Equal amounts of protein were subjected on SDS-PAGE and transferred to a nitrocellulose membrane. The membrane was then blocked in 5% milk in Tris buffered saline plus Tween 20 ® (TBST) for 45 min and probed with anti-yH2AX (Cell Signaling), anti-pCHK (Cell Signaling), anti-p276-NF-κB (Santa Cruz), anti-NF-κB p65 (Santa Cruz), anti-IκB (Santa Cruz), or anti-β-actin (Santa Cruz) at 4° C. overnight. After washing with TBST, the membrane was incubated with corresponding HRP-conjugated anti-rabbit or anti-mouse antibody for 45 min at room temperature. […]

[1] = tested on: γH2AX (phosphorylated H2AX); experiment: Western blot of DNA damage marker, HaCaT cells; format: cell-based, Human; details: 15 min and 1 h post UVB 50 mJ/cm^2
Protocol: as §1, §2

[2] = tested on: 6-4 photoproducts (6-4PP); experiment: Quantitative measurement of 6-4 photoproducts after UVB; format: cell-based; details: with vs without carnosol
Source text: FIG. 5F: Quantitative measurement of 6-4 photoproducts (6-4PP), with and without UVB, and with and without carnosol. *p<0.05 versus corresponded control group
There are two major forms of DNA damage caused by UVB radiation: one is the direct DNA damage which forms CPD; the other is the oxidation-caused DNA damage, which causes the formation of 6-4 PP. In order to identify which form of DNA damage is protected by carnosol, a quantitative assay to identify the production of both DNA damage products after UVB radiation with or without carnosol treatment was performed.

[3] = UVB irradiation of carnosol in DMSO, Mass Spectrum; format: physicochemical; details: 50 mJ/cm^2 UVB
Protocol: FIG. 10B. The carnosol was irradiated with UVB first in the DMSO solution, and then a Mass Spectrum was run to detect the decomposition of the compound.
FIG. 10C. Four major decomposed compounds were detected, with their molecular structure and weight solved.
UVB was generated from a Bench XX-Series UV Lamp (UVP Inc.) equipped with two 15-watt UVB tubes (UVP Inc.). The intensity of UVB was calibrated by a UVP model UVX digital radiometer (UVP Inc.) after the lamps warmed up for 5 min. For irradiating cells, the dose rate for 8 mJ/cm^2 or 50 mJ/cm^2 of UVB radiation was 0.8 or 3.8 mW/s respectively. Medium was removed before exposing the cells to UVB. After UVB radiation, fresh medium was added to the culture plates with or without drugs, and the cells were continue incubating at 37° C. with 5% CO2 until further analysis. Carnosol was disovled in DMSO and was irradiated with 50 mJ/cm^2 of UVB radiation at a dose rate of 3.8 mW/s before subjecting to cells or structure analysis using Mass Spectrum.

Question: With `CC(C)c1cc2c(c(O)c1O)[C@@]13CCCC(C)(C)[C@@H]1C[C@@H]2OC3=O` [carnosol] as the compound, how does the “reduction of ONOO^− level” value (ONOO^− in HaCaT cells; average from 2 h to 24 h post UVB) read?
Answer: Its value is “about 40%”.

Question: And the “ONOO^− level of cells without radiation” value (ONOO^− in HaCaT cells; no UVB)?
Answer: Its value is “little effect”.

Question: What about the “phosphorylation level of Chk” value (phosphor-Chk) of the same compound?
Answer: Its value is “significantly reduced”.

Question: And the “phosphorylation level of H2AX” value [1]?
Answer: Its value is “significantly reduced”.

Question: And the “6-4 PP formation after UVB radiation” value [2]?
Answer: The value was “no significant reduction”.

Question: What about the “decomposition upon UVB radiation” value [3] of the same compound?
Answer: The value was “breaks down to 4 major products”.
